Data from publication PMC5300203, “O-prenylated 3-carboxycoumarins as a novel class of 15-LOX-1 inhibitors” (PLoS ONE, 2017).
Like-named read-outs stand apart in the source and are kept apart here.

Tests used:
human 15-LOX-1 = molecular target: T1, human 15-LOX-1 (Homo sapiens, UniProt P16050); experiment: Lipoxygenase inhibitory assessment (DMAB-MBTH peroxide method, linoleic acid substrate); type: biochemical
T1 construct: Human 15-LOX-1 was prepared from isolated human eosinophil based on the procedure reported by Sigal et al; from tissue; host or cells: eosinophils purified from blood of hypereosinophilic human donors; 100,000 g supernatant, 30% and 60% ammonium sulfate pellets
T1 sequence (P16050 1-662): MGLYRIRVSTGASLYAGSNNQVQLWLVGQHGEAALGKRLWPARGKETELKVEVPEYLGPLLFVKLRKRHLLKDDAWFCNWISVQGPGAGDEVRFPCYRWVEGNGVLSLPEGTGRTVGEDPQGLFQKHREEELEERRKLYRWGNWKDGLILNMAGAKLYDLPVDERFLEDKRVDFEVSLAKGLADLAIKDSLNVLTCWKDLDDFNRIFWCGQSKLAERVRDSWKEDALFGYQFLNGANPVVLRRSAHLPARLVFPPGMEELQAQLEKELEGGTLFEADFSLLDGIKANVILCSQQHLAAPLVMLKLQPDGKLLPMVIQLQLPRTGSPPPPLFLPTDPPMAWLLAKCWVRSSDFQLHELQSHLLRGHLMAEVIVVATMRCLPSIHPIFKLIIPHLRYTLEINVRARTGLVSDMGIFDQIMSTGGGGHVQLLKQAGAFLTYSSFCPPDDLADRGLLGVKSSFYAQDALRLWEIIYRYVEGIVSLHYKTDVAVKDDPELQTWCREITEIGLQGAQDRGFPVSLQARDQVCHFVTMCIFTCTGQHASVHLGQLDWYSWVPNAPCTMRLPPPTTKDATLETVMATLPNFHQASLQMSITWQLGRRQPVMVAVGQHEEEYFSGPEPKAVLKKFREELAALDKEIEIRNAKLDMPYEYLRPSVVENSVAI
Procedure: The inhibitory activity of the synthetic compounds against human 15-LOX-1 was determined utilizing modified catalytic oxidative coupling of 3-methyl-2-benzothiazolinone (MBTH) with 3-(dimethylamino)benzoic acid (DMAB) as reported in previous studies. In this method, the basis for the determination of lipoxygenase activity is the measurement of peroxide concentration. Human 15-LOX-1 was prepared from isolated human eosinophil based on the procedure reported by Sigal et al. […] Because of the instability of the purified 15-LOX-1, the crude form of the enzyme was utilized. Eosinophils from blood of hypereosinophilic donors (8–11% eosinophils) were purified to more than 85% through “hypotonic lysis and centrifugation” method reported by Samoszuk.
Linoleic acid and two assay solutions (A and B) were prepared in advance.
Solution A was 50 mM DMAB in an l00 mM phosphate buffer (pH 7.0). Solution B was a mixture of l0 mM MBTH (3 mL), hemoglobin (5 mg/mL, 3 mL) in 50 mM phosphate buffer at pH 5.0 (25 ml). A linoleic acid solution was prepared by mixing 5.6 mg of linoleic acid (Sigma Aldrich, L1376) with 0.5 mL methanol and then diluted with KOH 100 mM to a final volume of 5 mL (4 mM).
In the standard assay, the sample in DMSO (12.5 μL), 15-LOX-1 (104 units/mL; 30 μL) and phosphate buffer, pH 7.0 (50 mM; 435 μL) were mixed in 48 well plate and perincubation was carried out for 10 min at 30°C. A control test was done with the same volume of ethanol. After the preincubation, linoleic acid solution (25 μL) was added to start the peroxidation reaction at 30°C, and, 10 min later, solution A (135 μL) and then solution B (65 μL) was added to start the color formation. Further, 3 min later, 100 μL of a 2% SDS solution was added to terminate the reaction. The absorbance at 598 nm was compared with the control test. These experiments were performed in triplicate. The data analysis was performed using GraphPad Prism 5.01.

[1] = human 15-LOX-1 from eosinophils (crude), linoleic acid, 30°C, ± SD (n = 3), read-out: IC50
[2] = human 15-LOX-1 from eosinophils (crude), linoleic acid, 30°C, ± SD (n = 3)

| IC50 (human 15-LOX-1; [1]) [µM] | melting point [°C] | Structure (SMILES) | IC50 (human 15-LOX-1) [µM] | higher lipoxygenase inhibitory activity compared to the corresponding carboxylate-off analog (human 15-LOX-1; 3-carboxycoumarin vs farnesyloxycoumarin without carboxylic acid (4d vs 4d')) [folds] | IC50 (human 15-LOX-1; [2]) [µM] | lower lipoxygenase inhibitory potency compared to the corresponding carboxylate-off analog (human 15-LOX-1; 3-carboxycoumarin vs farnesyloxycoumarin without carboxylic acid (d vs d')) [folds] |
| --- | --- | --- | --- | --- | --- | --- |
| 16.8 ± 1.1 |  | Cc1nc(N2CCN(C)CC2)nc2c1Sc1ccccc1N2 [Compound 4-MMPB, 4-methyl-2-(4-methylpiperazinyl)pyrimido[4,5-b]benzothiazine, reference compound] |  |  |  |  |
| 93.5 ± 7.6 | 115 to 117 | C=CCOc1cccc2oc(=O)c(C(=O)O)cc12 [Compound 4a, 5-(allyloxy)-2-oxo-2H-chromene-3-carboxylic acid] |  |  |  |  |
| 62.5 ± 5.9 | 85 to 86 | CC(C)=CCOc1cccc2oc(=O)c(C(=O)O)cc12 [Compound 4b, 5-(3-methylbut-2-enyloxy)-2-oxo-2H-chromene-3-carboxylic acid] |  |  |  |  |
| 4.8 ± 0.55 | 49 to 50 | CC(C)=CCC/C(C)=C/COc1cccc2oc(=O)c(C(=O)O)cc12 [Compound 4c, 5-((E)-3,7-dimethylocta-2,6-dienyloxy)-2-oxo-2H-chromene-3-carboxylic acid] |  |  |  |  |
| 296 ± 26.3 | 167 to 168 | C=CCOc1ccc2oc(=O)c(C(=O)O)cc2c1 [Compound 8a, 6-(allyloxy)-2-oxo-2H-chromene-3-carboxylic acid] |  |  |  |  |
| 227 ± 22.1 | 158 to 159 | CC(C)=CCOc1ccc2oc(=O)c(C(=O)O)cc2c1 [Compound 8b, 6-(3-methylbut-2-enyloxy)-2-oxo-2H-chromene-3-carboxylic acid] |  |  |  |  |
| 21.5 ± 1.6 | 130 to 131 | CC(C)=CCC/C(C)=C/COc1ccc2oc(=O)c(C(=O)O)cc2c1 [Compound 8c, Ethyl 6-((E)-3,7-dimethylocta-2,6-dienyloxy)-2-oxo-2H-chromene-3-carboxylic acid] |  |  |  |  |
| 114 ± 10.1 | 205 to 207 | C=CCOc1ccc2cc(C(=O)O)c(=O)oc2c1 [Compound 12a, 7-(allyloxy)-2-oxo-2H-chromene-3-carboxylic acid] |  |  |  |  |
| 81.3 ± 5.3 | 147 to 148 | CC(C)=CCOc1ccc2cc(C(=O)O)c(=O)oc2c1 [Compound 12b, 7-(3-methylbut-2-enyloxy)-2-oxo-2H-chromene-3-carboxylic acid] |  |  |  |  |
| 12.1 ± 0.91 | 118 to 119 | CC(C)=CCC/C(C)=C/COc1ccc2cc(C(=O)O)c(=O)oc2c1 [Compound 12c, 7-((E)-3,7-dimethylocta-2,6-dienyloxy)-2-oxo-2H-chromene-3-carboxylic acid] |  |  |  |  |
|  | 87 to 90 | CC(C)=CCC/C(C)=C/CC/C(C)=C/COc1ccc2cc(C(=O)O)c(=O)oc2c1 [Compound 12d, 7-((2E,6E)-3,7,11-trimethyldodeca-2,6,10-trienyloxy)-2-oxo-2H-chromene-3-carboxylic acid] |  |  |  |  |
| 293 ± 20.3 | 198 to 200 | C=CCOc1cccc2cc(C(=O)O)c(=O)oc12 [Compound 18a, 8-(allyloxy)-2-oxo-2H-chromene-3-carboxylic acid] |  |  |  |  |
| 263 ± 23 | 143 to 144 | CC(C)=CCOc1cccc2cc(C(=O)O)c(=O)oc12 [Compound 18b, 8-(3-methylbut-2-enyloxy)-2-oxo-2H-chromene-3-carboxylic acid] |  |  |  |  |
| 20.4 ± 2.2 | 100 to 101 | CC(C)=CCC/C(C)=C/COc1cccc2cc(C(=O)O)c(=O)oc12 [Compound 18c, 8-((E)-3,7-dimethylocta-2,6-dienyloxy)-2-oxo-2H-chromene-3-carboxylic acid] |  |  |  |  |

| Structure (SMILES) | IC50 (human 15-LOX-1; [1]) [µM] | melting point [°C] | IC50 (human 15-LOX-1) [µM] | higher lipoxygenase inhibitory activity compared to the corresponding carboxylate-off analog (human 15-LOX-1; 3-carboxycoumarin vs farnesyloxycoumarin without carboxylic acid (4d vs 4d')) [folds] | IC50 (human 15-LOX-1; [2]) [µM] | lower lipoxygenase inhibitory potency compared to the corresponding carboxylate-off analog (human 15-LOX-1; 3-carboxycoumarin vs farnesyloxycoumarin without carboxylic acid (d vs d')) [folds] |
| --- | --- | --- | --- | --- | --- | --- |
| CC(C)=CCC/C(C)=C/CC/C(C)=C/COc1cccc2oc(=O)c(C(=O)O)cc12 [Compound 4d, 5-((2E,6E)-3,7,11-trimethyldodeca-2,6,10-trienyloxy)-2-oxo-2H-chromene-3-carboxylic acid] |  | 39 to 40 | 0.74 ± 0.05 | 2 | 1.6 ± 0.08 |  |
| CC(C)=CCC/C(C)=C/CC/C(C)=C/COc1ccc2oc(=O)c(C(=O)O)cc2c1 [Compound 8d, 6-((2E,6E)-3,7,11-trimethyldodeca-2,6,10-trienyloxy)-2-oxo-2H-chromene-3-carboxylic acid] |  | 98 to 99 | 10.4 ± 2.1 |  | 1.0 ± 0.06 | 10 |
